According to patent publication EP4032543A1, “PEPTIDES FROM THE SEQUENCE OF THE COMPLEMENT FACTOR D FOR MEDICAL USE, ESPECIALLY FOR THE TREATMENT OF EBV-ASSOCIATED DISEASES” (Fraunhofer-Gesellschaft zur Förderung der angewandten …, priority 2021, dated 2022):

Test system: latently EBV-infected Raji-reporter cells
Assay: Induction of lytic EBV-infection after proviral treatment (expression of ZEBRA)
Format: cell-based
Conditions: EBV-positive Raji-reporter cells, 24 hours induction, related to untreated control; PMA at 20 ng/ml; Figure 1
Experimental: The relative induction of the EBV lytic cycle in latently EBV-infected Raji-reporter cells was tested using the human peptide mixture comprising the two complement factor D derived peptide sequences SEQ ID No. 3 and SEQ ID No. 4 (CFD+ peptide mixture) in comparison to the known exogenous proviral substance phorbol-12-myristate13-acetate (PMA), each related to the untreated control. The EBV-positive Raji-reporter cells were treated with the human peptide mixture or with the 20 ng/ml PMA. In a control, cells were not treated with a proviral substance. After 24 hours induction the lytic EBV-infection was compared between treated and non-treated cells via expression of the lytic EBV-immediate early protein ZEBRA. […] Without being bound to the theory, it can be assumed that the pure peptides will result in an even better induction.

`CCCCCCCCCCCCCC(=O)O[C@@H]1[C@@H](C)[C@@]2(O)[C@@H](C=C(CO)C[C@]3(O)C(=O)C(C)=C[C@@H]23)[C@@H]2C(C)(C)[C@]12OC(C)=O` [PMA, phorbol-12-myristate13-acetate] was tested, and the “induction of lytic EBV-infection via expression of the lytic EBV-immediate early protein ZEBRA” value was “resulted in the induction of lytic EBV-infection”.
